Each compound was assayed against T1, human PAR4 (Homo sapiens, UniProt Q96RI0) (assay: PAR4 FLIPR assay: antagonism of agonist-peptide-induced calcium mobilization in PAR4-expressing HEK293 cells). Conditions: H-Ala-Phe(4-F)-[…]NH2-induced intracellular calcium mobilization, 11-point curves.
T1 construct: expressed in transfected cells; host or cells: HEK293 PAR4 Clone 1.2A (BMS Arctic ID 383940)
T1 sequence (Q96RI0 18-385): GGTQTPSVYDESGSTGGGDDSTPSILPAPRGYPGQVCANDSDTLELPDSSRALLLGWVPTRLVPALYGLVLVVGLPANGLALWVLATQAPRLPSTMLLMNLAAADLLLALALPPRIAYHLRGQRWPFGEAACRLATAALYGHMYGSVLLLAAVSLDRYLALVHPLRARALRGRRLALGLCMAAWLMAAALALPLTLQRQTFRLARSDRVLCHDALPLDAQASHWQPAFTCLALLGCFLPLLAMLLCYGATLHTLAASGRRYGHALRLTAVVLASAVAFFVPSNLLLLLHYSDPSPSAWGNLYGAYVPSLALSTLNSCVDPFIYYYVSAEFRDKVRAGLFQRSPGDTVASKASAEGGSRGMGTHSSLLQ
Type: cell-based

| SMILES | IC50 [nM] |
| --- | --- |
| COc1cnc2c(-c3nc4cc(F)c(O[C@@H](C)[C@@H](C)OC(=O)Nc5cnc(C(N)=O)nc5)cc4s3)cc(C)cc2n1 [Example 454, (2R,3S)-3-((5-fluoro-2-(2-methoxy-7-methylquinoxalin-5-yl)benzo[d]thiazol-6-yl)oxy)butan-2-yl (2-carbamoylpyrimidin-5-yl)carbamate] | 1.3 |
| COc1cnc2c(-c3nc4cc(F)c(O[C@@H](C)[C@@H](C)OC(=O)Nc5cnc(C(=O)NCCO)nc5)cc4s3)cc(C)cc2n1 [Example 455, (2R,3S)-3-((5-fluoro-2-(2-methoxy-7-methylquinoxalin-5-yl)benzo[d]thiazol-6-yl)oxy)butan-2-yl (2-((2-hydroxyethyl)carbamoyl)pyrimidin-5-yl)carbamate] | 0.8 |
| COc1cnc2c(-c3nc4cc(F)c(O[C@@H](C)[C@@H](C)OC(=O)Nc5ccnc(C(=O)NCCC(C)(C)O)c5)cc4s3)cc(C)cc2n1 [Example 459, (2R,3S)-3-((5-fluoro-2-(2-methoxy-7-methylquinoxalin-5-yl)benzo[d]thiazol-6-yl)oxy)butan-2-yl (2-((3-hydroxy-3-methylbutyl)carbamoyl)pyridin-4-yl)carbamate] | 0.9 |
| COc1cnc2c(-c3nc4cc(F)c(O[C@@H](C)[C@@H](C)OC(=O)Nc5ccc(C(=O)NCC(C)(C)O)nc5)cc4s3)cc(C)cc2n1 [Example 460, (2R,3S)-3-((5-fluoro-2-(2-methoxy-7-methylquinoxalin-5-yl)benzo[d]thiazol-6-yl)oxy)butan-2-yl (6-((2-hydroxy-2-methylpropyl)carbamoyl)pyridin-3-yl)carbamate] | 0.9 |
| COc1cnc2c(-c3nc4cc(F)c(O[C@@H](C)[C@@H](C)OC(=O)Nc5ccc(C(=O)NCCC(C)(C)O)nc5)cc4s3)cc(C)cc2n1 [Example 464, (2R,3S)-3-((5-fluoro-2-(2-methoxy-7-methylquinoxalin-5-yl)benzo[d]thiazol-6-yl)oxy)butan-2-yl (6-((3-hydroxy-3-methylbutyl)carbamoyl)pyridin-3-yl)carbamate] | 1.5 |
| COc1cnc2c(-c3nc4cc(F)c(O[C@@H](C)[C@@H](C)OC(=O)Nc5ccnc(C(=O)NCC(C)(C)O)c5)cc4s3)cc(C)cc2n1 [Example 465, (2R,3S)-3-((5-fluoro-2-(2-methoxy-7-methylquinoxalin-5-yl)benzo[d]thiazol-6-yl)oxy)butan-2-yl (2-((2-hydroxy-2-methylpropyl)carbamoyl)pyridin-4-yl)carbamate] | 1.4 |
| CNC(=O)c1cc(NC(=O)O[C@H](C)[C@H](C)Oc2cc3sc(-c4cc(C)cc5nc(OC)cnc45)nc3cc2F)ccn1 [Example 466, (2R,3S)-3-((5-fluoro-2-(2-methoxy-7-methylquinoxalin-5-yl)benzo[d]thiazol-6-yl)oxy)butan-2-yl (2-(methylcarbamoyl)pyridin-4-yl)carbamate] | 0.7 |
| COc1cnc2c(-c3nc4cc(F)c(O[C@@H](C)[C@@H](C)OC(=O)Nc5ccnc(C(=O)N(C)C)c5)cc4s3)cc(C)cc2n1 [Example 467, (2R,3S)-3-((5-fluoro-2-(2-methoxy-7-methylquinoxalin-5-yl)benzo[d]thiazol-6-yl)oxy)butan-2-yl (2-(dimethylcarbamoyl)pyridin-4-yl)carbamate] | 1.9 |
| COc1cnc2c(-c3nc4cc(F)c(O[C@@H](C)[C@@H](C)OC(=O)Nc5cnc(C(=O)N(C)C)nc5)cc4s3)cc(C)cc2n1 [Example 468, (2R,3S)-3-((5-fluoro-2-(2-methoxy-7-methylquinoxalin-5-yl)benzo[d]thiazol-6-yl)oxy)butan-2-yl (2-(dimethylcarbamoyl)pyrimidin-5-yl)carbamate] | 0.8 |
| COc1cnc2c(-c3nc4cc(F)c(OC[C@@H](C)OC(=O)Nc5ccc(C(=O)NCC6(CO)COC6)nc5)cc4s3)cc(C)cc2n1 [Example 470, (R)-1-((5-fluoro-2-(2-methoxy-7-methylquinoxalin-5-yl)benzo[d]thiazol-6-yl)oxy)propan-2-yl (6-(((3-(hydroxymethyl)oxetan-3-yl)methyl)carbamoyl)pyridin-3-yl)carbamate] | 2.2 |
| COc1cnc2c(-c3nc4cc(F)c(OC[C@@H](C)OC(=O)Nc5ccc(C(=O)N(C)CCO)nc5)cc4s3)cc(C)cc2n1 [Example 471, (R)-1-((5-fluoro-2-(2-methoxy-7-methylquinoxalin-5-yl)benzo[d]thiazol-6-yl)oxy)propan-2-yl (6-((2-hydroxyethyl)(methyl)carbamoyl)pyridin-3-yl)carbamate] | 5.2 |

Results, then the compound that gave them:

| IC50 [nM] | SMILES |
| --- | --- |
| 0.4 | COc1cnc2c(-c3nc4cc(F)c(O[C@@H](C)[C@@H](C)OC(=O)Nc5ccnc(C(=O)NC[C@@H](C)O)c5)cc4s3)cc(C)cc2n1 [Example 452, (2R,3S)-3-((5-fluoro-2-(2-methoxy-7-methylquinoxalin-5-yl)benzo[d]thiazol-6-yl)oxy)butan-2-yl (2-(((R)-2-hydroxypropyl)carbamoyl)pyridin-4-yl)carbamate] |
| 0.6 | COc1cnc2c(-c3nc4cc(F)c(O[C@@H](C)[C@@H](C)OC(=O)Nc5ccnc(C(N)=O)c5)cc4s3)cc(C)cc2n1 [Example 453, (2R,3S)-3-((5-fluoro-2-(2-methoxy-7-methylquinoxalin-5-yl)benzo[d]thiazol-6-yl)oxy)butan-2-yl (2-carbamoylpyridin-4-yl)carbamate] |
| 0.4 | COc1cnc2c(-c3nc4cc(F)c(O[C@@H](C)[C@@H](C)OC(=O)Nc5cnc(C(=O)NCC(C)(C)O)nc5)cc4s3)cc(C)cc2n1 [Example 457, (2R,3S)-3-((5-fluoro-2-(2-methoxy-7-methylquinoxalin-5-yl)benzo[d]thiazol-6-yl)oxy)butan-2-yl (2-((2-hydroxy-2-methylpropyl)carbamoyl)pyrimidin-5-yl)carbamate] |
| 0.5 | COc1cnc2c(-c3nc4cc(F)c(O[C@@H](C)[C@@H](C)OC(=O)Nc5cnc(C(=O)NCCC(C)(C)O)nc5)cc4s3)cc(C)cc2n1 [Example 458, (2R,3S)-3-((5-fluoro-2-(2-methoxy-7-methylquinoxalin-5-yl)benzo[d]thiazol-6-yl)oxy)butan-2-yl (2-((3-hydroxy-3-methylbutyl)carbamoyl)pyrimidin-5-yl)carbamate] |
| 0.4 | COc1cnc2c(-c3nc4cc(F)c(O[C@@H](C)[C@@H](C)OC(=O)Nc5ccnc(C(=O)NC[C@H](C)O)c5)cc4s3)cc(C)cc2n1 [Example 461, (2R,3S)-3-((5-fluoro-2-(2-methoxy-7-methylquinoxalin-5-yl)benzo[d]thiazol-6-yl)oxy)butan-2-yl (2-(((S)-2-hydroxypropyl)carbamoyl)pyridin-4-yl)carbamate] |
| 0.2 | COc1cnc2c(-c3nc4cc(F)c(O[C@@H](C)[C@@H](C)OC(=O)Nc5cnc(C(=O)NC[C@H](C)O)nc5)cc4s3)cc(C)cc2n1 [Example 462, (2R,3S)-3-((5-fluoro-2-(2-methoxy-7-methylquinoxalin-5-yl)benzo[d]thiazol-6-yl)oxy)butan-2-yl (2-(((S)-2-hydroxypropyl)carbamoyl)pyrimidin-5-yl)carbamate] |
| 0.7 | COc1cnc2c(-c3nc4cc(F)c(O[C@@H](C)[C@@H](C)OC(=O)Nc5cnc(C(=O)NCC6(O)CCC6)nc5)cc4s3)cc(C)cc2n1 [Example 463, (2R,3S)-3-((5-fluoro-2-(2-methoxy-7-methylquinoxalin-5-yl)benzo[d]thiazol-6-yl)oxy)butan-2-yl (2-(((1-hydroxycyclobutyl)methyl)carbamoyl)pyrimidin-5-yl)carbamate] |

— patent US12060347B2 (BRISTOL-MYERS SQUIBB COMPANY, priority 2016, dated 2024)
